Earlier results in patent US20050020589A1, “Sustained-release tablet composition comprising a dopamine receptor agonist” (Pfizer Inc., priority 2003, published 2005).

In the case of “(R)-5,6-dihydro-5-(methylarnino)-4H-imidazo[4,5-ij]-quinolin-2(1H)-one (Z)-2-butenedioate (1:1) [maleate salt of sumanirole]”, the Solubility is given as “highly soluble”.
